Test results reported in ChEMBL document CHEMBL1201862, “PubChem BioAssay data set” (2004).
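Step 1: Grow cells in 96-well plates. Step 2: Expose to compound for 48 hours at 5 concentrations. Step 3: Interpolate endpoints linearly; if unreached, use highest concentration. GI50: concentration for 50% inhibition of growth.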 The source made the active and inactive calls. Rule as the data show it: active = GI50 up to about 1.1 µM and inactive = higher.

Legend:
Experiment in all cases: growth of human tumour cells (NCI), 48 h
SNB-19 = test system: SNB-19
HCT-15 = test system: HCT-15
SN12C = test system: SN12C
SK-MEL-2 = test system: SK-MEL-2
ACHN = test system: ACHN
DU-145 = test system: DU-145
HT-29 = test system: HT-29
OVCAR-5 = test system: OVCAR-5
MDA-MB-231 = test system: MDA-MB-231
786-0 = test system: 786-0
KM12 = test system: KM12
NCI-H460 = test system: NCI-H460
RXF 393 = test system: RXF 393
BT-549 = test system: BT-549
SF-539 = test system: SF-539
Hs-578T = test system: Hs-578T

Question: Which results are given for `C[N+](C)([O-])Cc1cccc(NC(=O)c2ccc(C(=O)Nc3cccc(C[N+](C)(C)[O-])c3)cc2)c1`?
Answer: GI50 (SNB-19): > 100 µM (inactive); GI50 (HCT-15): > 100 µM; GI50 (SN12C): > 100 µM (inactive); GI50 (SK-MEL-2): > 100 µM (inactive); GI50 (ACHN): > 100 µM (inactive); GI50 (DU-145): > 100 µM (inactive); GI50 (HT-29): > 100 µM (inactive); GI50 (OVCAR-5): > 100 µM (inactive); GI50 (MDA-MB-231): > 100 µM (inactive); GI50 (786-0): > 100 µM (inactive); GI50 (KM12): > 100 µM (inactive); GI50 (NCI-H460): > 100 µM (inactive); GI50 (RXF 393): > 100 µM (inactive); GI50 (BT-549): > 100 µM (inactive); GI50 (SF-539): > 100 µM (inactive)

Question: `Cc1ncc([N+](=O)[O-])n1CCNC(=O)CCCCCn1ccnc1[N+](=O)[O-]` was tested. Which GI50 (Hs-578T) did it give?
Answer: Its GI50 is > 100 µM (inactive).

Question: And the GI50 (SNB-19)?
Answer: The GI50 was > 100 µM (inactive).

Question: And the GI50 (HCT-15)?
Answer: Its GI50 is over 100 µM.

Question: What about the GI50 (SN12C) of the same compound?
Answer: Its GI50 is > 100 µM (inactive).

Question: And the GI50 (SK-MEL-2)?
Answer: Its GI50 is > 100 µM (inactive).

Question: What about the GI50 (ACHN) of the same compound?
Answer: The GI50 was > 100 µM (inactive).

Question: And the GI50 (DU-145)?
Answer: The GI50 was > 100 µM (inactive).

Question: And the GI50 (HT-29)?
Answer: Its GI50 is > 100 µM (inactive).

Question: What about the GI50 (OVCAR-5) of the same compound?
Answer: The GI50 was > 100 µM (inactive).

Question: And the GI50 (MDA-MB-231)?
Answer: The GI50 was > 100 µM (inactive).

Question: What about the GI50 (786-0) of the same compound?
Answer: The GI50 was > 100 µM (inactive).

Question: And the GI50 (KM12)?
Answer: Its GI50 is > 100 µM (inactive).

Question: And the GI50 (NCI-H460)?
Answer: Its GI50 is > 100 µM (inactive).

Question: What about the GI50 (BT-549) of the same compound?
Answer: Its GI50 is > 100 µM (inactive).

Question: What about the GI50 (SF-539) of the same compound?
Answer: Its GI50 is > 100 µM (inactive).

Question: Which results are given for `COC(=O)c1c2c(cc3c1CC1(Cc4ccccc4C1=O)C3)CCC2` (configuration not stated)?
Answer: GI50 (Hs-578T): 50 µM (inactive); GI50 (SNB-19): > 100 µM (inactive); GI50 (HCT-15): 21.4 µM; GI50 (SN12C): 25.7 µM (inactive); GI50 (SK-MEL-2): 43.7 µM (inactive); GI50 (ACHN): 23.9 µM (inactive); GI50 (DU-145): > 100 µM (inactive); GI50 (HT-29): 17.1 µM (inactive); GI50 (OVCAR-5): > 100 µM (inactive); GI50 (MDA-MB-231): 21.4 µM (inactive); GI50 (786-0): 25.2 µM (inactive); GI50 (KM12): 25.5 µM (inactive); GI50 (NCI-H460): 29.9 µM (inactive); GI50 (RXF 393): 19.5 µM (inactive); GI50 (SF-539): 71.1 µM (inactive)

Question: For `Fc1ccc(C(OCCN2CC3CCC(C2)N3CCCc2ccccc2)c2ccc(F)cc2)cc1`, which GI50 (Hs-578T) is on record?
Answer: Its GI50 is 3.25 µM (inactive).

Question: And the GI50 (SNB-19)?
Answer: The GI50 was 10.1 µM (inactive).

Question: And the GI50 (HCT-15)?
Answer: Its GI50 is 3.42 µM.

Question: And the GI50 (SN12C)?
Answer: The GI50 was 3.81 µM (inactive).

Question: And the GI50 (SK-MEL-2)?
Answer: The GI50 was 2.55 µM (inactive).

Question: What about the GI50 (ACHN) of the same compound?
Answer: Its GI50 is 10.6 µM (inactive).

Question: And the GI50 (DU-145)?
Answer: Its GI50 is 8.13 µM (inactive).

Question: What about the GI50 (HT-29) of the same compound?
Answer: The GI50 was 3.29 µM (inactive).

Question: And the GI50 (OVCAR-5)?
Answer: The GI50 was 10.6 µM (inactive).

Question: What about the GI50 (MDA-MB-231) of the same compound?
Answer: Its GI50 is 2.74 µM (inactive).

Question: What about the GI50 (786-0) of the same compound?
Answer: The GI50 was 3.62 µM (inactive).

Question: And the GI50 (KM12)?
Answer: The GI50 was 3.18 µM (inactive).

Question: And the GI50 (NCI-H460)?
Answer: The GI50 was 3.01 µM (inactive).

Question: What about the GI50 (BT-549) of the same compound?
Answer: The GI50 was 12.4 µM (inactive).

Question: And the GI50 (SF-539)?
Answer: The GI50 was 1.99 µM (inactive).

Question: Which results are given for `Nc1ccn(C2OC(COP(=O)(O)O)C(O)C2O)c(=O)n1` (configuration not stated)?
Answer: GI50 (SNB-19): 23.8 µM (inactive); GI50 (HCT-15): 45.5 µM; GI50 (SN12C): 7.89 µM (inactive); GI50 (SK-MEL-2): > 100 µM (inactive); GI50 (ACHN): 1.21 µM (inactive); GI50 (DU-145): 1.19 µM (inactive); GI50 (HT-29): 11.4 µM (inactive); GI50 (OVCAR-5): > 100 µM (inactive); GI50 (MDA-MB-231): > 100 µM (inactive); GI50 (786-0): 5.31 µM (inactive); GI50 (KM12): > 100 µM (inactive); GI50 (NCI-H460): 0.32 µM (active); GI50 (RXF 393): 11.1 µM (inactive); GI50 (BT-549): > 100 µM (inactive); GI50 (SF-539): 8.05 µM (inactive)

Question: `COc1cc2c(cc1OC)CCc1cc(OC)c(OC)cc1CC2` was tested. Which GI50 (Hs-578T) did it give?
Answer: Its GI50 is > 100 µM (inactive).

Question: And the GI50 (SNB-19)?
Answer: The GI50 was > 100 µM (inactive).

Question: And the GI50 (HCT-15)?
Answer: Its GI50 is over 100 µM.

Question: And the GI50 (SN12C)?
Answer: The GI50 was > 100 µM (inactive).

Question: What about the GI50 (SK-MEL-2) of the same compound?
Answer: Its GI50 is > 100 µM (inactive).

Question: What about the GI50 (ACHN) of the same compound?
Answer: Its GI50 is > 100 µM (inactive).

Question: What about the GI50 (DU-145) of the same compound?
Answer: Its GI50 is > 100 µM (inactive).

Question: And the GI50 (HT-29)?
Answer: The GI50 was > 100 µM (inactive).

Question: And the GI50 (OVCAR-5)?
Answer: Its GI50 is > 100 µM (inactive).

Question: What about the GI50 (MDA-MB-231) of the same compound?
Answer: Its GI50 is > 100 µM (inactive).

Question: And the GI50 (786-0)?
Answer: The GI50 was > 100 µM (inactive).

Question: What about the GI50 (KM12) of the same compound?
Answer: The GI50 was > 100 µM (inactive).

Question: And the GI50 (NCI-H460)?
Answer: The GI50 was > 100 µM (inactive).

Question: What about the GI50 (BT-549) of the same compound?
Answer: The GI50 was > 100 µM (inactive).

Question: And the GI50 (SF-539)?
Answer: The GI50 was > 100 µM (inactive).

Question: Which results are given for `NC(=S)C1=C(N)Oc2c(c(=O)oc3ccccc23)C1c1ccc(Br)cc1` (configuration not stated)?
Answer: GI50 (SNB-19): > 100 µM (inactive); GI50 (HCT-15): > 100 µM; GI50 (SN12C): > 100 µM (inactive); GI50 (SK-MEL-2): > 100 µM (inactive); GI50 (ACHN): > 100 µM (inactive); GI50 (DU-145): > 100 µM (inactive); GI50 (HT-29): > 100 µM (inactive); GI50 (OVCAR-5): > 100 µM (inactive); GI50 (MDA-MB-231): > 100 µM (inactive); GI50 (786-0): > 100 µM (inactive); GI50 (NCI-H460): > 100 µM (inactive); GI50 (BT-549): > 100 µM (inactive); GI50 (SF-539): > 100 µM (inactive)

Question: For `CN1N(c2ccccc2)C(=O)C2=NC=C(C#N)C(=N)C21C` (configuration not stated), which GI50 (SNB-19) is on record?
Answer: Its GI50 is > 100 µM (inactive).

Question: And the GI50 (HCT-15)?
Answer: The GI50 was over 100 µM.

Question: And the GI50 (SN12C)?
Answer: Its GI50 is > 100 µM (inactive).

Question: What about the GI50 (SK-MEL-2) of the same compound?
Answer: The GI50 was > 100 µM (inactive).

Question: And the GI50 (ACHN)?
Answer: The GI50 was 97.7 µM (inactive).

Question: And the GI50 (DU-145)?
Answer: Its GI50 is > 100 µM (inactive).

Question: And the GI50 (OVCAR-5)?
Answer: The GI50 was > 100 µM (inactive).

Question: And the GI50 (MDA-MB-231)?
Answer: Its GI50 is > 100 µM (inactive).

Question: What about the GI50 (786-0) of the same compound?
Answer: Its GI50 is > 100 µM (inactive).

Question: And the GI50 (KM12)?
Answer: The GI50 was > 100 µM (inactive).

Question: And the GI50 (NCI-H460)?
Answer: Its GI50 is > 100 µM (inactive).

Question: And the GI50 (RXF 393)?
Answer: The GI50 was > 100 µM (inactive).

Question: What about the GI50 (BT-549) of the same compound?
Answer: Its GI50 is > 100 µM (inactive).

Question: What about the GI50 (SF-539) of the same compound?
Answer: Its GI50 is > 100 µM (inactive).

Question: How did the GI50 (Hs-578T) turn out when `COc1ccc(C(=O)/C=C/c2ccc(OCCCCCCCCCCOc3ccc(/C=C/C(=O)c4ccc(OC)cc4)cc3)cc2)cc1` was run?
Answer: The GI50 was > 100 µM (inactive).

Question: What about the GI50 (SNB-19) of the same compound?
Answer: The GI50 was > 100 µM (inactive).

Question: And the GI50 (HCT-15)?
Answer: Its GI50 is over 100 µM.

Question: What about the GI50 (SN12C) of the same compound?
Answer: Its GI50 is > 100 µM (inactive).

Question: What about the GI50 (SK-MEL-2) of the same compound?
Answer: Its GI50 is > 100 µM (inactive).

Question: And the GI50 (ACHN)?
Answer: The GI50 was > 100 µM (inactive).

Question: And the GI50 (DU-145)?
Answer: The GI50 was > 100 µM (inactive).

Question: And the GI50 (HT-29)?
Answer: Its GI50 is > 100 µM (inactive).

Question: And the GI50 (OVCAR-5)?
Answer: The GI50 was > 100 µM (inactive).

Question: What about the GI50 (MDA-MB-231) of the same compound?
Answer: Its GI50 is > 100 µM (inactive).

Question: And the GI50 (786-0)?
Answer: Its GI50 is > 100 µM (inactive).

Question: And the GI50 (KM12)?
Answer: Its GI50 is > 100 µM (inactive).

Question: What about the GI50 (NCI-H460) of the same compound?
Answer: The GI50 was > 100 µM (inactive).

Question: What about the GI50 (RXF 393) of the same compound?
Answer: The GI50 was > 100 µM (inactive).

Question: And the GI50 (SF-539)?
Answer: Its GI50 is > 100 µM (inactive).
